Like-named read-outs stand apart in the source and are kept apart here.
Columns and labels:
[1] = system: Key Broadleaf Weed and Crop Species; test: Post-emergent Test II herbicidal activity (Table 5); assay type: in vivo; settings: post-emergence, 336 h, 14 days after application; for pest or weed control at 70 g/ha: application rate 70 g ai/ha; for pest or weed control at 140 g/ha: application rate 140 g ai/ha
Method in brief: (§1)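 Compounds, dissolved in 97:3 acetone/DMSO and diluted into an aqueous carrier containing crop oil concentrate and Triton X-155, are applied over the top of young plants at 187 L/ha. Injury is scored visually at 14 d, 0% meaning no effect and 100% complete kill.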

[2] = system: Key Grass and Sedge Weeds as well as Grass Crops; test: Post-emergent Test II herbicidal activity (Table 6); assay type: in vivo; settings: post-emergence, 336 h
Method in brief: as §1

[3] = ABUTH: velvetleaf (Abutilon theophrasti), read-out: Visual Growth Reduction (%) 14 Days After Application, ABUTH
[4] = AMARE: redroot pigweed (Amaranthus retroflexus), read-out: Visual Growth Reduction (%) 14 Days After Application, AMARE
[5] = BRSNN: oilseed-rape, canola (Brassica napus), read-out: Visual Growth Reduction (%) 14 Days After Application, BRSNN
[6] = CHEAL: lambsquarters (Chenopodium album), read-out: Visual Growth Reduction (%) 14 Days After Application, CHEAL
[7] = EPHHL: wild poinsettia (Euphorbia heterophylla), read-out: Visual Growth Reduction (%) 14 Days After Application, EPHHL
[8] = HELAN: sunflower (Helianthus annuus), read-out: Visual Growth Reduction (%) 14 Days After Application, HELAN
[9] = VIOTR: wild pansy (Viola tricolor), read-out: Visual Growth Reduction (%) 14 Days After Application, VIOTR

SMILES: COc1c(N)nc(-c2ccc(Br)c(F)c2F)nc1C(=O)O [Compound 8]
- pest or weed control at 70 g/ha [1, 3]: 95 to 100%
- pest or weed control at 140 g/ha [1, 3]: 95 to 100%
- pest or weed control at 70 g/ha [1, 4]: 95 to 100%
- pest or weed control at 140 g/ha [1, 4]: 95 to 100%
- pest or weed control at 70 g/ha [1, 5]: 95 to 100%
- pest or weed control at 140 g/ha [1, 5]: 95 to 100%
- pest or weed control at 70 g/ha [1, 6]: 95 to 100%
- pest or weed control at 140 g/ha [1, 6]: 95 to 100%
- pest or weed control at 70 g/ha [1, 7]: 95 to 100%
- pest or weed control at 140 g/ha [1, 7]: 95 to 100%
- pest or weed control at 70 g/ha [1, 8]: 95 to 100%
- pest or weed control at 140 g/ha [1, 8]: 95 to 100%
- pest or weed control at 70 g/ha [1, 9]: 95 to 100%
- pest or weed control at 140 g/ha [1, 9]: 95 to 100%
- pest or weed control at 70 g/ha ([2]; Triticum aestivum, TRZSS (wheat), application rate 70 g ai/ha, read-out: Visual Growth Reduction (%) 14 Days After Application, TRZSS): 60 to 74%
- pest or weed control at 140 g/ha ([2]; Triticum aestivum, TRZSS (wheat), application rate 140 g ai/ha, read-out: Visual Growth Reduction (%) 14 Days After Application, TRZSS): 75 to 84%
- pest or weed control at 70 g/ha ([2]; CYPES: yellow nutsedge (Cyperus esculentus), application rate 70 g ai/ha, read-out: Visual Growth Reduction (%) 14 Days After Application, CYPES): 95 to 100%
- pest or weed control at 140 g/ha ([2]; CYPES: yellow nutsedge (Cyperus esculentus), application rate 140 g ai/ha, read-out: Visual Growth Reduction (%) 14 Days After Application, CYPES): 95 to 100%
- pest or weed control at 70 g/ha ([2]; DIGSA: crabgrass (Digitaria sanguinalis), application rate 70 g ai/ha, read-out: Visual Growth Reduction (%) 14 Days After Application, DIGSA): 75 to 84%
- pest or weed control at 140 g/ha ([2]; DIGSA: crabgrass (Digitaria sanguinalis), application rate 140 g ai/ha, read-out: Visual Growth Reduction (%) 14 Days After Application, DIGSA): 85 to 94%
- pest or weed control at 70 g/ha ([2]; ECHCG: barnyardgrass (Echinochloa crus-galli), application rate 70 g ai/ha, read-out: Visual Growth Reduction (%) 14 Days After Application, ECHCG): 85 to 94%
- pest or weed control at 140 g/ha ([2]; ECHCG: barnyardgrass (Echinochloa crus-galli), application rate 140 g ai/ha, read-out: Visual Growth Reduction (%) 14 Days After Application, ECHCG): 85 to 94%
- pest or weed control at 70 g/ha ([2]; ORYSA: rice (Oryza sativa), application rate 70 g ai/ha, read-out: Visual Growth Reduction (%) 14 Days After Application, ORYSA): 30 to 44%
- pest or weed control at 140 g/ha ([2]; ORYSA: rice (Oryza sativa), application rate 140 g ai/ha, read-out: Visual Growth Reduction (%) 14 Days After Application, ORYSA): 45 to 59%
- pest or weed control at 70 g/ha ([2]; SETFA: giant foxtail (Setaria faberi), application rate 70 g ai/ha, read-out: Visual Growth Reduction (%) 14 Days After Application, SETFA): 75 to 84%
- pest or weed control at 140 g/ha ([2]; SETFA: giant foxtail (Setaria faberi), application rate 140 g ai/ha, read-out: Visual Growth Reduction (%) 14 Days After Application, SETFA): 95 to 100%
- pest or weed control at 70 g/ha ([2]; SORVU: grain sorghum (Sorghum vulgare), application rate 70 g ai/ha, read-out: Visual Growth Reduction (%) 14 Days After Application, SORVU): 95 to 100%
- pest or weed control at 140 g/ha ([2]; SORVU: grain sorghum (Sorghum vulgare), application rate 140 g ai/ha, read-out: Visual Growth Reduction (%) 14 Days After Application, SORVU): 95 to 100%
- pest or weed control at 70 g/ha ([2]; ZEAMX: maize, corn (Zea mays), application rate 70 g ai/ha, read-out: Visual Growth Reduction (%) 14 Days After Application, ZEAMX): 60 to 74%
- pest or weed control at 140 g/ha ([2]; ZEAMX: maize, corn (Zea mays), application rate 140 g ai/ha, read-out: Visual Growth Reduction (%) 14 Days After Application, ZEAMX): 85 to 94%
- melting point: 126 to 128 °C (dec.)

SMILES: COC(=O)c1nc(-c2ccc(I)cc2F)c(F)c(N)c1Cl [Compound 9]
- pest or weed control at 70 g/ha [1, 3]: 0 to 29%
- pest or weed control at 140 g/ha [1, 3]: 0 to 29%
- pest or weed control at 70 g/ha [1, 4]: 0 to 29%
- pest or weed control at 140 g/ha [1, 4]: 0 to 29%
- pest or weed control at 70 g/ha [1, 5]: 0 to 29%
- pest or weed control at 140 g/ha [1, 5]: 0 to 29%
- pest or weed control at 70 g/ha [1, 6]: 0 to 29%
- pest or weed control at 140 g/ha [1, 6]: 0 to 29%
- pest or weed control at 70 g/ha [1, 7]: 0 to 29%
- pest or weed control at 140 g/ha [1, 7]: 0 to 29%
- pest or weed control at 70 g/ha [1, 8]: 0 to 29%
- pest or weed control at 140 g/ha [1, 8]: 0 to 29%
- pest or weed control at 70 g/ha [1, 9]: 0 to 29%
- pest or weed control at 140 g/ha [1, 9]: 0 to 29%
- pest or weed control at 70 g/ha ([2]; CYPES: yellow nutsedge (Cyperus esculentus), 70 g ai/ha, read-out: Visual Growth Reduction (%) 14 Days After Application, CYPES): 0 to 29%
- pest or weed control at 140 g/ha ([2]; CYPES: yellow nutsedge (Cyperus esculentus), 140 g ai/ha, read-out: Visual Growth Reduction (%) 14 Days After Application, CYPES): 0 to 29%
- pest or weed control at 70 g/ha ([2]; DIGSA: crabgrass (Digitaria sanguinalis), 70 g ai/ha, read-out: Visual Growth Reduction (%) 14 Days After Application, DIGSA): 0 to 29%
- pest or weed control at 140 g/ha ([2]; DIGSA: crabgrass (Digitaria sanguinalis), 140 g ai/ha, read-out: Visual Growth Reduction (%) 14 Days After Application, DIGSA): 0 to 29%
- pest or weed control at 70 g/ha ([2]; ECHCG: barnyardgrass (Echinochloa crus-galli), 70 g ai/ha, read-out: Visual Growth Reduction (%) 14 Days After Application, ECHCG): 0 to 29%
- pest or weed control at 140 g/ha ([2]; ECHCG: barnyardgrass (Echinochloa crus-galli), 140 g ai/ha, read-out: Visual Growth Reduction (%) 14 Days After Application, ECHCG): 0 to 29%
- pest or weed control at 70 g/ha ([2]; ORYSA: rice (Oryza sativa), crop, 70 g ai/ha, read-out: Visual Growth Reduction (%) 14 Days After Application, ORYSA): 0 to 29%
- pest or weed control at 140 g/ha ([2]; ORYSA: rice (Oryza sativa), crop, 140 g ai/ha, read-out: Visual Growth Reduction (%) 14 Days After Application, ORYSA): 0 to 29%
- pest or weed control at 70 g/ha ([2]; SETFA: giant foxtail (Setaria faberi), 70 g ai/ha, read-out: Visual Growth Reduction (%) 14 Days After Application, SETFA): 0 to 29%
- pest or weed control at 140 g/ha ([2]; SETFA: giant foxtail (Setaria faberi), 140 g ai/ha, read-out: Visual Growth Reduction (%) 14 Days After Application, SETFA): 0 to 29%
- pest or weed control at 70 g/ha ([2]; SORVU: grain sorghum (Sorghum vulgare), 70 g ai/ha, read-out: Visual Growth Reduction (%) 14 Days After Application, SORVU): 0 to 29%
- pest or weed control at 140 g/ha ([2]; SORVU: grain sorghum (Sorghum vulgare), 140 g ai/ha, read-out: Visual Growth Reduction (%) 14 Days After Application, SORVU): 0 to 29%
- pest or weed control at 70 g/ha ([2]; TRZSS (wheat, Triticum aestivum), crop, 70 g ai/ha, read-out: Visual Growth Reduction (%) 14 Days After Application, TRZSS): 0 to 29%
- pest or weed control at 140 g/ha ([2]; TRZSS (wheat, Triticum aestivum), crop, 140 g ai/ha, read-out: Visual Growth Reduction (%) 14 Days After Application, TRZSS): 0 to 29%
- pest or weed control at 70 g/ha ([2]; ZEAMX: maize, corn (Zea mays), crop, 70 g ai/ha, read-out: Visual Growth Reduction (%) 14 Days After Application, ZEAMX): 0 to 29%
- pest or weed control at 140 g/ha ([2]; ZEAMX: maize, corn (Zea mays), crop, 140 g ai/ha, read-out: Visual Growth Reduction (%) 14 Days After Application, ZEAMX): 0 to 29%
- melting point: 136 to 138 °C
